According to patent US4647552A, “Process for obtaining ready for fertilization sexual products from sexually mature fish” (Kozponti Valto-es Hitelbank Rt. Innovacios Alap, priority 1983, dated 1987):
Where a SMILES comes first, the peptide text is derived from it. [ ]: non-standard residue; d: D form. pGlu = O=C1CC[C@@H](C(=O)O)N1

How the values were obtained:
Assay type in all cases: in vivo
[1] = test system: perch [Perca fluviatilis L.]; assay: Induced artificial propagation of perch; details: single dose of 20 μg if ripe for ovulation, or last of the 2 μg doses
Protocol: Mature fish are selected from a population and transported to the place of propagation. Maturity of sexual products is determined according to Example 1 but sexes are not segregated. Fish ripe for ovulation--includingmales--are treated with a single dose of 20 μg of decapeptide of formula (II). Fish not yet ripe for ovulation should be kept at the temperature of natural spawning and the above-mentioned compound should be administered in doses of 2 μg each at least 2 but at most 10 times as long as the nucleus of egg cell moves from the centre to the periphery. The number of treatments depends on the actual stage of maturity of sexual products in comparison to the stage "ripe for ovulation". The process of ripening lasts at least 100 day-grades, in extreme cases to 400 day-grades, in the water temperature-interval of 12°-16° C. Spawning takes place 24-36 hours after the administration of the last dose. Perch can be spawned easily in tanks; in such a case stripping of sexual products is not necessary.

[2] = test system: sterlet (Acipenser ruthenus L.); assay: Induced artificial propagation of sterlet; details: single dose of 70 μg if ripe for ovulation, or last of the 10 μg doses, injected
Protocol: From the population of a given habitat mature fish are selected and then transported to the place of propagation. Sexes are segregated and the stage of ripening of eggs from females is determined. Fish are considered to be ripe for ovulation if the nucleus is situated on the periphery of the egg cell. Sperms of males are not examined as in the population of a given habitat the sexual products of males and females are practically in the same stage of ripening. If fish are ripe for ovulation, decapeptide of formula (II) in a single dose of 70 μg each is injected into each fish, including males. If fish are not ripe for ovulation, they should be kept at the temperature of natural spawning and the above compound should be administered in doses of 10 μg each, at least 2 but at most 12 times as long as the nucleus moves from the centre to the periphery. The number of treatments depends on the actual stage of maturity of sexual products in comparison to the stage "ripe for ovulation". This process of ripening lasts at least 100 but at most 630 day-grades in the temperature interval of 12°-18° C. (Day-grade means number of days multiplied by the mean temperature of water used in the ripening period.) Ovulation takes place 24-32 hours after the administration of the last dose. Thereafter sexual products are obtained in 40-60 minutes.

[3] = test system: horse mackerel (Trachurus trachurus L.); assay: Induced artificial propagation of horse mackerel; details: single dose of 10 μg injected, water temperature 18°-24° C.
Protocol: From among horse mackerels caught alive from the Adriatic in November specimens having a length of at least 240 mm are transported to the place of propagation. (Fish of this size are already mature sexually.) The compound of formula (II) is injected into each fish in a single dose of 10 μg. Ovulation takes place in 24 hours at the water temperature of 18°-24° C. Sexual products are obtained in 2 hours. In case of horse mackerel the determination of stage of ripening and sex is unnecessary as ripe fish are at disposal in a practically unlimited quantity.

[4] = test system: common carp (Cyprinus carpio L.); assay: Induced artificial propagation of common carp; details: single dose of 70 μg if ripe for ovulation, or last of the 5 μg doses
Protocol: In any season of the year and at any temperature mature breeders are selected from the stock and transported to the place of propagation. Sexes are segregated and the stage of ripening of sexual products is determined according to Example 1. If fish are ripe for ovulation, a single dose of 70 μg of decapeptide of formula (III) is administered, including males. Fish not yet ripe for making ovulate should be kept at the temperature of natural spawning and the above-mentioned compound should be administered in doses of 5 μg each, at least 2 but at most 15 times as long as the nucleus of the egg cell moves from the centre to the periphery. The number of treatments depends on the actual stage of maturity of sexual products in comparison to the stage "ripe for ovulation". The process of ripening lasts at least 100 but most 750 day-grades in the temperature interval of 20°-24° C. Ovulation takes place 240-260 hour-grades after the administration of the last dose. Then sexual products are stripped in 40-60 minutes. cl EXAMPLE 3

[5] = test system: silver carp (Hypophthalmichthys molitrix Val.); assay: Induced artificial propagation of silver carp; details: single dose of 100 μg if ripe for ovulation, or last of the 10 μg doses
Protocol: Sexually mature fish are selected from the stock and transported to the place of propagation. Sexes are segregated. Stage of ripening of sexual products is determined according to Example 1 and fish ripe for ovulation--including males--are treated with a single dose of 100 μg of decapeptide of formula (III). Fish not yet ripe for ovulation should be kept at the temperature of natural spawning and the above-mentioned compound should be administered in doses of 10 μg each, at least 2 but at most 10 times as long as the nucleus of egg cell moves from the centre to the periphery. The number of treatments depends on the actual stage of maturity of sexual products in comparison to the stage "ripe for ovulation". This process of ripening lasts at least 150, in extreme cases to 850, day-grades in the water temperature interval of 20°-26° C. Ovulation takes place 240-260 hour-grades after the administration of the last dose. Thereafter sexual products are stripped.

| SMILES | Spawning takes place after the administration of the last dose [1] [h] | Ovulation takes place after the administration of the last dose [2] [h] | Ovulation takes place in [3] [h] | Ovulation takes place after the administration of the last dose [4] | Ovulation takes place after the administration of the last dose [5] |
| --- | --- | --- | --- | --- | --- |
| CC(C)C[C@H](NC(=O)[C@@H](Cc1ccccc1)NC(=O)[C@H](Cc1ccc(O)cc1)NC(=O)[C@H](CO)NC(=O)[C@H](Cc1c[nH]c2ccccc12)NC(=O)[C@H](Cc1c[nH]cn1)NC(=O)[C@@H]1CCC(=O)N1)C(=O)N[C@@H](CCC(N)=O)C(=O)N1CCC[C@H]1C(=O)NCC(N)=O [formula (II), Glp-His-Trp-Ser-Tyr-D-Phe-Leu-Gln-Pro-Gly-NH2] ([pGlu]HWSY[dF]LQPG-NH2) | 24 to 36 | 24 to 32 | 24 |  |  |
| CC(C)C[C@H](NC(=O)[C@H](Cc1c[nH]c2ccccc12)NC(=O)[C@@H](Cc1ccccc1)NC(=O)[C@H](Cc1ccc(O)cc1)NC(=O)[C@H](CO)NC(=O)[C@H](Cc1c[nH]c2ccccc12)NC(=O)[C@H](Cc1c[nH]cn1)NC(=O)[C@@H]1CCC(=O)N1)C(=O)N1CCC[C@H]1C(=O)NCC(N)=O [formula (III), Glp-His-Trp-Ser-Tyr-D-Phe-Trp-Leu-Pro-Gly-NH2] ([pGlu]HWSY[dF]WLPG-NH2) |  |  |  | 240-260 hour-grades | 240-260 hour-grades |
